Source: patent US10369133B2, “Immunosuppressive compounds and therapeutics” (UNIVERSITY OF TENNESSEE RESEARCH FOUNDATION, priority 2013, dated 2019)

How the values were obtained:
PHA-stimulated T cells = assay: T cell activation markers in medium of PHA-stimulated T cells by ELISA; assay type: cell-based, human; conditions: 5 μM; for level of IFNγ / level of TNFα: medium of T cells following PHA stimulation; for level of IL-2 / level of IL-2 receptors: medium of T cells, 48 h following PHA stimulation
Experimental: Briefly, human peripheral blood mononuclear cells PBMCs were isolated from human buffy coat using Ficoll-Paque. T cells ([…]) were isolated from PBMCs using dynabeads for human CD3+ T cells and subjected to PHA (1 μg/mL) stimulation for 24 h alone or with JP-3-110 (5 μM) and MPA (5 μM) for additional 48 h. The PHA-stimulated proliferation of T cells is characterized by a quick drop in the early stage (24 h) and a following fast-proliferative stage. FIGS. 3B and 3C show charts depicting the levels of IL-2, IL-2 receptor, TNFα and IFNγ in the media of T cells at 48 h following PHA stimulation. IL-2 and IL-2 receptor were transient expressed markers for early stage T cell activation while TNFα and IFNγ were stably expressed markers for later-stage T cell activation. Results are presented as the mean±S.D., n=6.
PBMCs were isolated using Ficoll Paque. T cells were isolated from PBMCs using Dynabeads for. T cells were stimulated with PHA (1 μg/ml) for 24 h alone or in the presence of TNP (5 μM) or JP-3-110 (5 μM) for additional 4 days. The total number of PBMCs was measured using T4 Automatic Cell Counter (Nexcelom, Lawrence, Mass.). The extent of T cell activation was determined by measuring the level of IL-2, IL-2sRa, TNFα and IFN-γ in the medium using ELISA at indicated time.
Mixed lymphocytes reaction was used to determine the immunosuppressive effects of MPA and JP-3-110. T cells were purified using dynabeads from peripheral blood mononuclear cells (PBMCs), which were initially isolated from human buffy coat (FIG. 8A). […] The levels of IL-2, IL-2sRa, TNFα and IFNγ were detected by ELISA to study the effects of JP-3-110 and MPA on T cell activation. IL-2 and IL-2R typically peaked at the first 48 h after PHA stimulation as markers for the early stage T cell activation, while TNFα and IFNγ were constitutively expressed by PHA-stimulated T cells as later-stage markers for T cell activation. […] However, the results might be due to an overlap between the immunosuppressive pathway and the anti-inflammatory pathway of JP-3-110 and MPA.

human PBMCs in NSG mice = assay: Immunosuppressive effect in humanized NSG mice; assay type: in vivo, mouse; conditions: for amount of human CD3+ T cells in the mouse spleen / serum human IgG level: 50 mg/kg intraperitoneally, consecutive 7 shots, compared with saline
Experimental: Human PBMCs (5×10^6/mouse) were injected intraperitoneally into NSG mice to introduce human immunity. Sections were stained to indicate human CD3+ T cells (red) and counterstained with DAPI (blue). […] Results are presented as the mean±S.D., n=5.
Human PBMCs were isolated from buffy coats by gradient centrifugation using Ficoll Paque. The T cells and B cells of PBMCs were stained with FITC conjugated CD3 antibody and APC conjugated CD19 antibody, respectively, and characterized using flow cytometry. The PBMCs were infused into diabetic NSG mice at the concentration of 5×10^6/mouse to establish human immunity. The settlement of T cells in the spleen was assessed by immunofluorescence staining. Briefly, spleen were isolated, washed with PBS, fixed in 4% paraformaldehyde overnight, and embedded in optimal cutting temperature compound. Frozen sections of 5 μm thickness were cut. The slides were stained with rabbit anti-human CD3 primary antibody (1:200) at 4° C. overnight and Alexa Fluor 568 conjugated goat anti-rabbit secondary antibody (1:500) at room temperature for 1 h. The function of B cells was assessed by measuring human IgG concentration in the mouse blood.
To test the immunosuppressive effect of JP-3-110 in vivo, a humanized mouse model was used. Briefly, human PBMCs (5×10^6/mouse) were adoptively transferred into immunodeficient NSG mice to build human immunity. The human IgG level in the serum and human CD3+ T cell staining in the spleen was used to confirm the existence of human immunity (FIG. 8B). JP-3-110 and MPA was administrated intraperitoneally at 50 mg/kg for consecutive 7 shots.

human islets = assay: Dynamic insulin release (perifusion) assay of human islets; assay type: cell-based; conditions: co-incubation with drug; for insulin release pattern under stimulatory glucose: basal then stimulatory glucose
Experimental: Briefly, 50 islets from each group were perifused with basal glucose for 60 min and stimulatory glucose for 30 min and finally with basal glucose until insulin release reversed to the basal level. Samples were collected through an automatic fraction collector and analyzed for insulin content by ELISA.
The insulin secretion from human islets was quantified using a dynamic islet perifusion assay as described before. See Wu et al., 2011, The Journal of Gene Medicine, 13:658-669. Briefly, 50 islets from each group were handpicked and loaded onto a Swinnex 13 chamber (Millipore, Burlington, Mass., USA) and perifused with Krebs-Ringer bicarbonate HEPES buffer of the following composition (in mM): 129 NaCl, 5 NaHCO3, 4.8 KCl, 1.2 KH2PO4, 1.2 MgSO4, 2.5 CaCl2, and 10 HEPES at pH 7.4. The flow rate was maintained at 1 ml/min with a peristaltic pump (Themo Fisher, Waltham, Mass.) and the temperature was maintained at 37° C. with a solution heater (Warner Instruments, Hamden, Conn.). Islets were first perifused with basal glucose for 60 min, stimulatory glucose for 20 min and basal glucose until insulin release reversed to the basal level. The perifusion speed was set to 2 mL/minute and samples were collected once per minute through an automatic fraction collector (Waters, Milford, Mass.) and analyzed for insulin content by ELISA.
A dynamic insulin release assay was used to evaluate the function of human islets. Briefly, […] handpicked human islets were sequentially perfused with basal and stimulatory glucose. The samples were collected using an auto-sampler and subjected to ELISA.

Compound | level of IFNγ (PHA-stimulated T cells) | level of TNFα (PHA-stimulated T cells) | level of IL-2 (PHA-stimulated T cells) | level of IL-2 receptors (PHA-stimulated T cells) | amount of human CD3+ T cells in the mouse spleen (human PBMCs in NSG mice) | serum human IgG level (human PBMCs in NSG mice) | insulin release pattern under stimulatory glucose (human islets) | immunosuppressive effect, MPA compared with JP-3-110 (human PBMCs in NSG mice; humanized NSG mice, 50 mg/kg each) | total insulin release to stimulatory glucose (human islets)
CCCCNC(=O)[C@]1(O)C[C@@H](O)[C@@H](O)[C@H](OC(=O)CC/C(C)=C/Cc2c(OC)c(C)c3c(c2OC(C)=O)C(=O)OC3)C1 [JP-3-110, (1R,2R,3R,5S)-5-(butylcarbamoyl)-2,3,5-trihydroxycyclohexyl (E)-6-(4-acetoxy-6-methoxy-7-methyl-3-oxo-1,3-dihydroisobenzofuran-5-yl)-4-methylhex-4-enoate] | moderate inhibition | moderate inhibition | did not have any effect | did not have any effect | significantly reduced | significantly reduced | clear biphasic insulin release | – | –
COc1c(C)c2c(c(O)c1C/C=C(\C)CCC(=O)O)C(=O)OC2 [MPA, mycophenolic acid, reference compound] | moderate inhibition | moderate inhibition | did not have any effect | did not have any effect | significantly reduced | significantly reduced | impaired the insulin release from both phases | slightly better immunosuppressive effect than JP-3-110 | significantly reduction
